The nature of data set [1]: Exposure in mice after acute oral dosing (blood levels, UPLC-MS/MS). Format: in vivo, BALB/c mice. The note with it: for half-life: read-out: elimination half-life (t1/2) (converted); for Tmax: read-out: time of maximum concentration in blood. As to the method:
The R and S enantiomers of PA-824 (50 mg kg^−1) were orally administered to BALB/c mice. Blood samples (10 μl) were collected from the tail vein of each animal into sample storage tubes (Micronic BV) containing deionized water (20 μl) at defined intervals postdose and stored at −80°C until analysis. The level of each enantiomer in mouse blood was determined by UPLC-MS/MS ([20]).

The next data set relates to LdBOB promastigotes. Kind of data set: PA-824-mediated cell killing (time to kill, wash-out viability). Format: cell-based, Leishmania donovani. Conditions: 10 times EC50, promastigotes.
The subject of data set [2] is Mycobacterium tuberculosis. More on the design: method as in PMID 22023140. Conditions: cited from earlier work.
In the next data set the test system is HepG2 cells. The data set is described as follows: HepG2 counterscreen (resazurin). Format: cell-based. The note with it: Homo sapiens; Mammalian (HepG2); n = 2.
Data set [3] relates to Trypanosoma cruzi Silvio-X10/7 clone A1 epimastigotes. The data set is described as follows: In vitro drug sensitivity assay, T. cruzi epimastigotes (72 h, resazurin). Format: cell-based. Conditions: T. cruzi epimastigote. For orientation: Resazurin is reduced to fluorescent resorufin, in cell work by metabolically active cells.
The test system of data set [4] is L. donovani intracellular amastigotes in mouse peritoneal macrophages. The data set is described as follows: In-macrophage drug sensitivity assay. The data set is classed as cell-based, Leishmania donovani. Conditions: for EC50: L. donovani amastigote (in macrophage); for activity against L. donovani intracellular amastigotes: highest concentration tested 50 μM.
In data set [5] the test system is promastigotes of the LdBOB strain of L. donovani. The data set is described as follows: Drug combination studies (fixed-ratio isobologram, 72 h). The data set is classed as cell-based, Leishmania donovani. Conditions: for EC50: Leishmania donovani, compound alone, duplicate cultures, read-out: Absolute EC50. Here is the method: The EC50s of each combination were determined after 72 h and plotted as an isobologram ([23]).

Data set [6] concerns T. brucei bloodstream forms (S427 Single Marker). Kind of data set: In vitro drug sensitivity assay, bloodstream-form T. brucei. The data set is classed as cell-based. Conditions: Trypanosoma brucei.
The nature of data set [7]: Tolerability in mice during the efficacy study. The data set is classed as in vivo, BALB/c mice. The note with it: 30 or 100 mg kg^−1 orally twice daily for 5 days. Here is the method: All animal experiments were approved by the University Ethical Review Committee and performed under the Animals (Scientific Procedures) Act 1986 in accordance with the European Communities Council Directive (86/609/EEC). Groups of female BALB/c mice (5 per group) were inoculated intravenously with approximately 2 × 10^7 L. donovani amastigotes (LV9; WHO designation MHOM/ET/67/HU3) harvested from the spleen of an infected hamster ([24]). […] Drug dosing solutions were prepared fresh each day, and the vehicle for both enantiomers of PA-824 was 10% (vol/vol) dimethyl sulfoxide (DMSO), 40% polyethylene glycol 400, and 50% deionized water. On day 14 postinfection, all animals were humanely euthanized and parasite burdens were determined by counting the number of amastigotes/500 liver cells ([11]). Parasite burden is expressed in Leishmania donovani units (LDU), mean number of amastigotes per liver cell × mg weight of liver ([25]).

For data set [8] the following is noted: mouse liver microsomes, 0.5 μM compound.
Data set [9] deals with Trypanosoma brucei brucei S427 29-13 procyclic trypomastigotes. The data set is described as follows: In vitro drug sensitivity assay, T. brucei procyclics (72 h, resazurin). Format: cell-based.
In data set [10] the test system is Transgenic LdBOB promastigotes expressing the Leishmania major nitroreductase (LmjF.05.0660). The data set is described as follows: microbe, parasite or virus in culture. Format: cell-based, Leishmania donovani. The note with it: for EC50: Leishmania major, read-out: EC50 against NTR-overexpressing promastigotes.
Data set [11] has as its system T. cruzi amastigotes in Vero cells. Kind of data set: In-Vero-cell T. cruzi drug sensitivity assay (72 h, high-content imaging). The data set is classed as cell-based. Conditions: Trypanosoma cruzi; T. cruzi amastigote (in Vero cell).
Data set [12] relates to L. donovani amastigotes (LV9). The data set is described as follows: In vivo drug sensitivity, mouse model of visceral leishmaniasis (liver parasite burden). Further details: species or system Leishmania donovani. The note with it: for suppression of infection (liver parasite burden) compared to untreated controls / suppression of infection (liver parasite burden): BALB/c mice; for suppression of infection (liver parasite burden) compared to untreated controls: 30 mg kg^−1 orally twice daily for 5 days.

A short description of the next data set: in vitro. The note with it: mouse, plasma.
Data set [13] relates to Leishmania donovani LdBOB promastigotes. The data set is described as follows: In vitro drug sensitivity assay, L. donovani promastigotes (72 h, resazurin). Format: cell-based. Conditions: for EC50: Leishmania donovani; for activity against L. donovani promastigotes: highest concentration tested 50 μM.
The conditions of data set [14]: mouse PPB, equilibrium dialysis. (Equilibrium dialysis compares concentrations on both sides of a semipermeable membrane.)
The subject of data set [15] is T. brucei bloodstream forms (S427 Single Marker). The note with it: previously determined value; cited from earlier work.
Data set [16] relates to L. donovani intracellular amastigotes in mouse peritoneal macrophages. Conditions: comparator value, earlier work of the authors; cited from earlier work.
In data set [17] the test system is lab-generated strains of nifurtimox-resistant T. brucei. The note with it: cited from earlier work.
Where [18] appears, read: BALB/c, mouse, whole blood, 50 mg kg^−1 oral.
Setting [19] is: Leishmania donovani, Peritoneal macrophage.
[20] abbreviates: Leishmania donovani, Peritoneal macrophage, L. donovani in macrophages, from EC50 and Hill slope, read-out: EC90.
[21] abbreviates: fixed-ratio isobologram, promastigotes.
The mark [22] stands for this setting: 100 mg kg^−1 orally twice daily for 5 days.
The mark [23] stands for this setting: L. donovani promastigote, read-out: EC50.
[24] abbreviates: WT LdBOB promastigotes, nitroreductase experiment (Fig. 2), read-out: EC50 against wild-type (WT) promastigotes.

The structures appear in SMILES notation. Several values for one entry are separate records, joined by “and”; a condition that tells them apart may be missing. Equal values may be shown once. Entries after “also recorded” stand apart in the source; their conditions may differ. Read-outs that look alike come from different tables or passages of the source.

Usually MIC stands for the least concentration at which growth counts as inhibited. What is called EC50 is the midpoint of the concentration-response curve. Broadly, the solubility is the concentration that dissolves in the medium under given conditions. A higher solubility goes with much dissolved substance. Usually fraction unbound stands for free concentration divided by total concentration. With `O=[N+]([O-])c1cn2c(n1)OC[C@H](OCc1ccc(OC(F)(F)F)cc1)C2` [(R)-PA-824], in data set [1], the oral bioavailability result was “orally bioavailable”. The “maximum concentration in blood” value in data set [1] (50 mg kg^−1 oral) is listed as 10,500 ng ml^−1. In addition, the half-life in data set [1] (setting [18]) was ~2 h. For the same compound, the Tmax in data set [1] (setting [18]) was 4 h. Besides, the cytocidal or cytostatic entry with LdBOB promastigotes is recorded as “leishmanicidal rather than cytostatic; also recorded: cytocidal rather than cytostatic”. Moreover, the “time after which cell numbers begin to decline” value in the data set on LdBOB promastigotes is 12 h. Also, in the data set with LdBOB promastigotes, the “time at which no intact/live parasites remain” value amounted to 24 h. In addition, the minimal inhibitory concentration (MIC) in [2] was > 100 µM. Moreover, the EC50 in the data set on HepG2 cells is > 50 µM; in data set [3], 0.7 ± 0.08 µM; in [4] it was 0.93 ± 0.06 µM; in data set [4] (setting [19]), 0.9 ± 0.1 µM; in [5] (Fig. 3A experiment) it was 0.18 µM; in data set [5] (Fig. 3B experiment), 0.1 µM. In addition, the EC50 in data set [6] was 14.9 ± 0.7 µM; in data set [9] it was 25 ± 0.2 µM; in data set [10], 0.11 ± 0.005 µM; in data set [11] it was 4.4 ± 0.5 µM; in [13] (setting [23]), 0.16 ± 0.03 µM. Further, the EC90 in data set [4] (setting [20]) was 3.4 µM; in data set [4] (Leishmania donovani, Peritoneal macrophage, not adjusted for plasma protein binding, read-out: EC90 (equivalent mass concentration)), 1.2 µg/mL. Besides, the “interaction in combination with (S)-PA-824” value in data set [5] (setting [21]) was “mild antagonistic behavior; also recorded: progressively more antagonistic; also recorded: mildly antagonistic”. Moreover, the “interaction in combination with fexinidazole sulfone” value in data set [5] (setting [21]) is reported as “act additively; also recorded: additive effect”. For the same compound, the tolerability in mice result in data set [7] is “extremely well tolerated”. The compound further showed a CLint in [8] of 0.65 mL/min/g. Besides, the “suppression of infection (liver parasite burden) compared to untreated controls” value in data set [12] is reported as “approximately 35%”. The “suppression of infection (liver parasite burden)” value in [12] (setting [22]) is > 99% and 99.9%. In addition, the solubility in the data set “physchem” is > 250 µM. The compound further yielded a fraction unbound in the data set “in vitro” of 0.22.

Regarding `FC(F)(F)Oc1ccc(CO[C@H]2COc3nccn3C2)cc1` [(R)-des-nitro-PA-824], the “activity against L. donovani intracellular amastigotes” value in data set [4] is “inactive”. The “fraction unbound (plasma protein binding)” value in data set [14] is reported as 0.45. In addition, the “activity against L. donovani promastigotes” value in data set [13] is “inactive”.

On to `O=[N+]([O-])c1cn2c(n1)OC[C@@H](OCc1ccc(OC(F)(F)F)cc1)C2` [(S)-PA-824, reference compound], for which the oral bioavailability entry in data set [1] was “orally bioavailable”. Moreover, in [1] (50 mg kg^−1 oral), the “maximum concentration in blood” value is recorded as 11,600 ng ml^−1. For the same compound, in [1] (BALB/c, mouse, whole blood, 50 mg kg^−1 oral, 24 h), the concentration at 24 h was 900 ng/mL. In addition, the half-life in [1] (setting [18]) is ~5 h. The Tmax in data set [1] (setting [18]) is 4 h. The cytocidal or cytostatic result in the data set with LdBOB promastigotes was “leishmanicidal rather than cytostatic”. Moreover, the “time after which cell numbers begin to decline” value with LdBOB promastigotes was 12 h. Also, in the data set with LdBOB promastigotes, the “time at which no intact/live parasites remain” value was found to be 36 h. In addition, the EC50 in the data set with HepG2 cells is > 50 µM; in [3] it was 3.4 ± 0.03 µM; in [4], 4.92 ± 0.3 µM; in [4] (setting [19]) it was 4.9 ± 0.3 µM; in [5] (Fig. 3B experiment), 0.74 µM; in [9], 36.5 ± 2.5 µM. Further, the EC50 was 37.8 ± 3.2 µM in data set [15]; 0.8 ± 0.04 µM in data set [10]; > 30 µM in [11]; 0.9 ± 0.1 µM in [13] (setting [23]); 0.96 ± 0.02 µM in [13] (setting [24]). For the same compound, the EC90 in [4] (setting [20]) was determined as 22 µM. In [7], the tolerability in mice result was “extremely well tolerated”. This compound had a CLint in [8] of 1.6 mL/min/g. Also, the “suppression of infection (liver parasite burden) compared to untreated controls” value in data set [12] is “approximately 35%”. The “suppression of infection (liver parasite burden)” value in data set [12] (setting [22]) is recorded as “comparable to those seen in drug-free animals; also recorded: less efficacious”. In [12] (earlier in vivo study, range of doses down to 0.4 mg kg^−1, twice daily orally (Fig. S1)), the “dose dependence of leishmanicidal effect” value is reported as “apparent absence of a dose-dependent leishmanicidal effect”. For the same compound, the solubility in “physchem” is > 250 µM. This compound yielded an unbound share (fraction unbound) in “in vitro” of 0.21.

In the case of `FC(F)(F)Oc1ccc(CO[C@@H]2COc3nccn3C2)cc1` [(S)-des-nitro-PA-824], the “activity against L. donovani intracellular amastigotes” value in data set [4] is “inactive”. Besides, in data set [13], the “activity against L. donovani promastigotes” value is “inactive”.

On to `Cn1c([N+](=O)[O-])cnc1COc1ccc(S(C)(=O)=O)cc1` [fexinidazole sulfone, reference compound], for which the EC50 in data set [16] is 5.3 µM; in data set [5] (Fig. 3A experiment), 8.8 µM.

Turning to `CSc1ccc(OCc2ncc([N+](=O)[O-])n2C)cc1` [fexinidazole], the “sensitivity of nifurtimox-resistant T. brucei” value in data set [17] is on record as “cross resistant”.

Take `CCCCCCCCCCCCCCCCOP(=O)([O-])OCC[N+](C)(C)C` [miltefosine]: the “suppression of infection (liver parasite burden)” value in data set [12] (12 mg kg^−1 orally once daily for 5 days) was 68.7%.

Regarding `CC1CS(=O)(=O)CCN1/N=C/c1ccc([N+](=O)[O-])o1` (stereo not drawn) [nifurtimox], the half-maximal effective concentration (EC50) worked out at 0.2 ± 0.09 µM in data set [10] and 5.6 ± 0.16 µM in [13] (setting [24]). In addition, in data set [10] (transgenic versus wild-type), the “increase in sensitivity of nitroreductase-overexpressing parasites” value worked out at 26 fold.

Turning to `O.O.O.O.O.O.O.O.O.O=C([O-])[C@@H]1[O][Sb](=[O])([O][Sb]2(=[O])[O][C@H]([C@H](O)CO)[C@H](O)[C@H](C(=O)[O-])[O]2)[O][C@H]([C@H](O)CO)[C@@H]1O.[Na+].[Na+].[Na+]` (stereo partly drawn) [sodium stibogluconate], the “suppression of infection (liver parasite burden)” value in data set [12] (15 mg kg^−1 subcutaneously once daily for 5 days) is reported as 41.9%.

Values taken from publication PMC3811480, “The R Enantiomer of the Antitubercular Drug PA-824 as a Potential Oral Treatment for Visceral Leishmaniasis” (Antimicrobial Agents and Chemotherapy, 2013).
